Results from article PMC8537180, “Discovery of a Kojibiose Hydrolase by Analysis of Specificity-Determining Correlated Positions in Glycoside Hydrolase Family 65” (Molecules, 2021).
Like-named read-outs stand apart in the source and are kept apart here.

Experiments:
HoGP = biological target: T1, HoGP (Halothermothrix orenii, UniProt B8D049); conditions: 50 mM MOPS pH 7.0
T1 construct: gene Hore_00420

TbGP = biological target: T2, TbGP (Thermobispora bispora, UniProt D6Y6U5); assay: phosphomolybdate assay and HPAEC-PAD, synthesis direction; type: biochemical; conditions: 50 mM MOPS pH 7.0, trehalose formed
T2 construct: gene Tbis_2887; codon-optimized gene in pET21a, C-terminal His6-tag, expressed in E. coli BL21(DE3) agp-, Ni-NTA purified; GH65 subgroup 1

CaGP = biological target: T3, CaGP (Caldithrix abyssi, UniProt H1XSN4); assay: as above; type: biochemical; conditions: 50 mM MOPS pH 7.0
T3 construct: gene Calab_2975; codon-optimized gene in pET21a, C-terminal His6-tag, expressed in E. coli BL21(DE3) agp-, Ni-NTA purified; GH65 subgroup 22

ChGP = biological target: T4, ChGP (Caldicellulosiruptor hydrothermalis, UniProt E4Q9G1); assay: as above; type: biochemical; conditions: acceptor; donor βGlc1P; 50 mM MOPS pH 7.0
T4 construct: gene Calhy_0070; codon-optimized gene in pET21a, C-terminal His6-tag, expressed in E. coli BL21(DE3) agp-, Ni-NTA purified; GH65 subgroup 4

MiGP = biological target: T5, MiGP (Mageeibacillus indolicus, UniProt D3R1R5); assay: as above; type: biochemical; conditions: acceptor, minor activity; donor 10 mM βGlc1P; 50 mM MOPS pH 7.0
T5 construct: gene HMPREF0868_0806; codon-optimized gene in pET21a, C-terminal His6-tag, expressed in E. coli BL21(DE3) agp-, Ni-NTA purified; GH65 subgroup 6
T5 sequence (D3R1R5 1-712): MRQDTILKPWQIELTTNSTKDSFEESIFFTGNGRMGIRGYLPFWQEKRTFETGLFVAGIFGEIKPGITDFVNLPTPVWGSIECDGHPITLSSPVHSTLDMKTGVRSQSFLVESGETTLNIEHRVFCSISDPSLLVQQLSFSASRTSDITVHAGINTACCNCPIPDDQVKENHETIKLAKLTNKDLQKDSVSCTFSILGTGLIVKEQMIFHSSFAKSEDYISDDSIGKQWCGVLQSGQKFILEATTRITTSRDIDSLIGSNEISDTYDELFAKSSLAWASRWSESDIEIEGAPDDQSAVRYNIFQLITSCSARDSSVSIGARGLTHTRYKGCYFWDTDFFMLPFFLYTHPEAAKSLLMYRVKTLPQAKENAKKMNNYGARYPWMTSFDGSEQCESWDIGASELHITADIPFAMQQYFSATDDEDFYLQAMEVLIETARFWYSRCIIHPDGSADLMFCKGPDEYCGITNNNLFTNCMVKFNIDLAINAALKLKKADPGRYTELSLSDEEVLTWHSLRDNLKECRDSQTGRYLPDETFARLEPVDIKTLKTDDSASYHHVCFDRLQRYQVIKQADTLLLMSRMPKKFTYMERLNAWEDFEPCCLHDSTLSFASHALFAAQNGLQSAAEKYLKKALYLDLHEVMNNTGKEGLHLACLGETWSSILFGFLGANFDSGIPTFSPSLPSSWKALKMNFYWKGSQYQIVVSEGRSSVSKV

T2 sequence (D6Y6U5 entry or part of it): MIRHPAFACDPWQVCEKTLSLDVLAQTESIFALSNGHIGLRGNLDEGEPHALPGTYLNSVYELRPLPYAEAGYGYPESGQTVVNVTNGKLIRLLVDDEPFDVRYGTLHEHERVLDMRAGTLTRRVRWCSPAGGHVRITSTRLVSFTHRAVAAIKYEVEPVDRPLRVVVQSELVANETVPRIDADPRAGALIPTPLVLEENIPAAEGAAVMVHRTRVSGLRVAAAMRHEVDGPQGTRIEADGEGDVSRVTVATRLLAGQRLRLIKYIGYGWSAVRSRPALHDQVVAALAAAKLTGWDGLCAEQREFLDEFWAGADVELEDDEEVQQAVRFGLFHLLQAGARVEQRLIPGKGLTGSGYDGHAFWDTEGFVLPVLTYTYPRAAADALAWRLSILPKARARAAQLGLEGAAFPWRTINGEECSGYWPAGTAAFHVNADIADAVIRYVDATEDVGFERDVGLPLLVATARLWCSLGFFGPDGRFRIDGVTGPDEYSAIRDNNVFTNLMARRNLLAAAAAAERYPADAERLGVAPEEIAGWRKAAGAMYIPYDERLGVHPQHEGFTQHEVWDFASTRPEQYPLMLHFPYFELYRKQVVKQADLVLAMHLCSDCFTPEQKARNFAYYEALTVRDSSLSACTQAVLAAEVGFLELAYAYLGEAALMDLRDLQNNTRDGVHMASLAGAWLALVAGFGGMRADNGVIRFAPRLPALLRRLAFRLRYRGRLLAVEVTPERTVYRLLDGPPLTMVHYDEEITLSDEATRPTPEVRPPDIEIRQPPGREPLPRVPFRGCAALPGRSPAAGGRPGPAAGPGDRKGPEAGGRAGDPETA
T1 sequence (B8D049 whole entry): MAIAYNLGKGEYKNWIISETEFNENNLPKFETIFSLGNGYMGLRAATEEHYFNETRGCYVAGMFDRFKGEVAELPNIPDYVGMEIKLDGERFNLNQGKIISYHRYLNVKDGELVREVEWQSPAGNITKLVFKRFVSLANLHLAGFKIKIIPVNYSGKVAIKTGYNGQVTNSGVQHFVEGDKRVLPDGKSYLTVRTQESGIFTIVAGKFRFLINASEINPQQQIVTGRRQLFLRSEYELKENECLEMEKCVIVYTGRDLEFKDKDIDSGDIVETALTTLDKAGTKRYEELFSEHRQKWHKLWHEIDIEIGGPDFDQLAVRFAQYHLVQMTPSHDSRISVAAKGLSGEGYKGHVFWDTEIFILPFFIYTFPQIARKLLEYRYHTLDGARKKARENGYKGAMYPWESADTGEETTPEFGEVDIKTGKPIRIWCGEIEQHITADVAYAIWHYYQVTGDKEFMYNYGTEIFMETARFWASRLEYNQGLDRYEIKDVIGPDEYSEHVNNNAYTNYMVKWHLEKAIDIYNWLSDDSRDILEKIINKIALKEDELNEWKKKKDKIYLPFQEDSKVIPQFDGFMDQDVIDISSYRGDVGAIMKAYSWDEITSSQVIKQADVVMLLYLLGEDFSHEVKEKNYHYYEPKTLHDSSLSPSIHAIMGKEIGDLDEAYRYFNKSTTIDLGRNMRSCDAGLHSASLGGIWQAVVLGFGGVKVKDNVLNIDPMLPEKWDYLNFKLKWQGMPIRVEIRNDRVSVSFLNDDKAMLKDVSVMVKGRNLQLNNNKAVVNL
T3 sequence (H1XSN4 entry or part of it): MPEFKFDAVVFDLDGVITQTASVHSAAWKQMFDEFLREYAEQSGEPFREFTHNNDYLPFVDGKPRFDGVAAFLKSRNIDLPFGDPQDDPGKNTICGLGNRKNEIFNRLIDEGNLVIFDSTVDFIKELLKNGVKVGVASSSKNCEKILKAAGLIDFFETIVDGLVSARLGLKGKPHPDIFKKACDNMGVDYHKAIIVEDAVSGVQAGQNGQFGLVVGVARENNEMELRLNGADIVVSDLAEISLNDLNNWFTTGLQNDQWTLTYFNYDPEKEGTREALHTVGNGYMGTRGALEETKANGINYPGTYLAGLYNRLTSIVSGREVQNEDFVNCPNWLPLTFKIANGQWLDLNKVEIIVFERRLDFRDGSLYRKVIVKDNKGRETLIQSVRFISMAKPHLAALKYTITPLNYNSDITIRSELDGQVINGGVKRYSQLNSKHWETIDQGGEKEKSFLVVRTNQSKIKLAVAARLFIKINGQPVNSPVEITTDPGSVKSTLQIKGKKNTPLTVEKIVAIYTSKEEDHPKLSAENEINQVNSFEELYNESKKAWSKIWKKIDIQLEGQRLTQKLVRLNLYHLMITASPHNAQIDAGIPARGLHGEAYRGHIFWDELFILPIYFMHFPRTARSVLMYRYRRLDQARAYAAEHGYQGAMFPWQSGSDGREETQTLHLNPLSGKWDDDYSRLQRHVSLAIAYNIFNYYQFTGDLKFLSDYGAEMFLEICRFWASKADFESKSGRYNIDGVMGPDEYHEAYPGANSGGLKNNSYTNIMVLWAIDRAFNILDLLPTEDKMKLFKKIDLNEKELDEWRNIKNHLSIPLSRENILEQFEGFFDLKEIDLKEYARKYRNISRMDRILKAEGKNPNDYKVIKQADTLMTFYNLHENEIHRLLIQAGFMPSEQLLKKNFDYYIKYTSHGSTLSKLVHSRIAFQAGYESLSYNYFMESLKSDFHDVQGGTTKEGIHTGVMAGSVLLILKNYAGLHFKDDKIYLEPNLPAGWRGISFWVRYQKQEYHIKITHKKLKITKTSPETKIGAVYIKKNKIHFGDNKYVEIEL
T4 sequence (E4Q9G1 entry or part of it): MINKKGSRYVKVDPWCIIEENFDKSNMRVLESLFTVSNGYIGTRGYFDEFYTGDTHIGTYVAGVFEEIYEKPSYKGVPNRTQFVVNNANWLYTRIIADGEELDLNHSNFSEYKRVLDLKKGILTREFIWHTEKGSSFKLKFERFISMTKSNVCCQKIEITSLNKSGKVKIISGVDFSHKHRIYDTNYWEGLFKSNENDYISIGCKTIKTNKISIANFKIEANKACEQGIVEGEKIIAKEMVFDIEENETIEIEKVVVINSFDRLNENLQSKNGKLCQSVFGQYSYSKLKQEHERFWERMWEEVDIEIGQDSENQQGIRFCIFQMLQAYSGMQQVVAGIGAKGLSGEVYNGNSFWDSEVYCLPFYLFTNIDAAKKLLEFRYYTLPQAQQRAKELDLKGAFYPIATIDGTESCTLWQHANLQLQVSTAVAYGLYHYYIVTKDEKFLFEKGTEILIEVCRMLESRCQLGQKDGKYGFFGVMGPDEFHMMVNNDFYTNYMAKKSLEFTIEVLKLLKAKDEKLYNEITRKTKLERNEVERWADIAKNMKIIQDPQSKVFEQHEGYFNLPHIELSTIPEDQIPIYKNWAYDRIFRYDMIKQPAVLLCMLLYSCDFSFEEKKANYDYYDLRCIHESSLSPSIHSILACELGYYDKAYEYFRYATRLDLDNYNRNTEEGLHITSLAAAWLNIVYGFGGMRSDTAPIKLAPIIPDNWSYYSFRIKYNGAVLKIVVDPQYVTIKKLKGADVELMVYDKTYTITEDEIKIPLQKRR

O=P(O)(O)O[C@@H]1O[C@H](CO)[C@@H](O)[C@H](O)[C@H]1O [βGlc1P]
phosphomolybdate assay and HPAEC-PAD, synthesis direction (HoGP; acceptor kojibiose): In a reaction mixture that contained both kojibiose and βGlc1P, phosphorolytic and synthetic reactions co-occur | phosphomolybdate assay and HPAEC-PAD, synthesis direction (TbGP; acceptor glucose): In a reaction mixture of glucose and βGlc1P, TbGP produced trehalose | phosphomolybdate assay and HPAEC-PAD, synthesis direction (CaGP; acceptor glucose 6-phosphate): trehalose 6-phosphate was produced from βGlc1P and glucose 6-phosphate

OC[C@H]1O[C@H](O[C@H]2C(O)O[C@H](CO)[C@@H](O)[C@@H]2O)[C@H](O)[C@@H](O)[C@@H]1O (some centres unmarked) [kojibiose]
phosphomolybdate assay and HPAEC-PAD, synthesis direction (HoGP; phosphorolysis and acceptor with βGlc1P): both breaking kojibiose down to glucose and βGlc1P and using it as acceptor

OC[C@H]1O[C@H](O[C@H]2[C@H](O)[C@@H](CO)OC(O)[C@@H]2O)[C@H](O)[C@@H](O)[C@@H]1O (some centres unmarked) [nigerose]
phosphomolybdate assay and HPAEC-PAD, synthesis direction (ChGP): ChGP elongated nigerose, and other disaccharides, to form α-1,3-oligoglucans

O=P(O)(O)OC[C@H]1OC(O)[C@H](O)[C@@H](O)[C@@H]1O (some centres unmarked) [glucose 6-phosphate]
phosphomolybdate assay and HPAEC-PAD, synthesis direction (CaGP; donor βGlc1P): trehalose 6-phosphate was produced from βGlc1P and glucose 6-phosphate

OC[C@H]1OC(O)[C@H](O)[C@@H](O)[C@@H]1O (some centres unmarked) [glucose]
phosphomolybdate assay and HPAEC-PAD, synthesis direction (MiGP): Apart from minor activity on glucose and galactose, MiGP prefers α-glucosidic disaccharides | phosphomolybdate assay and HPAEC-PAD, synthesis direction (TbGP; donor βGlc1P): In a reaction mixture of glucose and βGlc1P, TbGP produced trehalose
